According to US20160115200A1, “New Use for JNK Inhibitor Molecules for Treatment of Various Diseases” (XIGEN INFLAMMATION LTD., priority 2013, published 2016):
Square brackets hold non-standard residues; d marks the D form. Ends that are not written are not given here.

Columns and labels:
[1] = test system: endotoxins-induced uveitis albino rat model; assay: Endotoxins-induced uveitis (EIU), single intravenous injection, clinical scoring 24 h after LPS; type: in vivo; parameters: key to EIU clinical score, median: clinical score per eye, 0 to 4 scale
Method: The aim of this study was to determine the effects of single intravenous injections of SEQ ID NO: 172 (0.015, 0.18, and 1.80 mg/kg) on the inflammatory response in an endotoxins-induced uveitis albino rat model and to compare these affects to those obtained with prior art JNK inhibitor of SEQ ID NO: 197 (2 mg/kg). As a further control served phosphate sodic dexamethasone.
Sixty (60) male Lewis rats were randomly divided into six (6) groups of ten (10) animals each. EIU was induced by footpad injection of lipopolysaccharide (LPS, 1 mg/kg). NaCl (0.9%), SEQ ID NO: 197 at 2 mg/kg and SEQ ID NO: 172 at three concentrations (1.80 mg/kg, 0.18 mg/kg and 0.015 mg/kg) were administered by intravenous injection. Phosphate sodic dexamethasone (20 μg/eye) was administered by sub-conjunctival injection in both eyes. 24 hours after LPS injection, inflammatory response was evaluated by clinical scoring.
The intensity of clinical ocular inflammation was scored on a scale from 0 to 4 for each eye: […]

[2] = test system: mouse model of scopolamine-induced dry eye; assay: Scopolamine-induced dry eye in mice (TBUT, PRTT, histopathology); type: in vivo
From the text: The objective of this study was to assess the effects of two different compounds, the all-D-retro-inverso JNK-inhibitor (poly-)peptide of SEQ ID NO: 197 and the JNK inhibitor (poly-)peptide of SEQ ID NO: 172, at three dose levels in a mouse model of scopolamine-induced dry eye.
The study consisted of a total of 9 groups of female C57BL/6 mice, comprising 8 groups of 12 mice each and an additional group of 4 mice. Bilateral short-term dry eye was induced by a combination of scopolamine hydrobromide (Sigma-Aldrich Corp., St. Louis, Mo.) injection (subcutaneous (SC), four times daily, 0.5 mg/dose, Days 0-21) and by exposing mice to the drying environment of constant air draft. […] Mice of Group 9 were maintained as un-induced, (no dry eye) untreated controls.
During the in-life (treatment) period, clinical observations were recorded once daily; slit-lamp examination (SLE) with corneal fluorescein staining, tear break-up time test (TBUT), and phenol red thread test (PRTT) were performed three times per week. Necropsies were performed on Day 22; eyes, eye lids, conjunctivae, and lacrimal glands were collected from both eyes of each animal. Tissues from the right eyes (oculus dexter, OD) were fixed and then evaluated microscopically. Tissues from the left eyes (oculus sinister; OS) were flash-frozen in liquid nitrogen and stored frozen at −80° C. for possible subsequent analyses.
The TBUT test was conducted three times weekly by measuring the time elapsed in seconds between a complete blink after application of fluorescein to the cornea and the appearance of the first random dry spot in the tear film. […] At least ninety seconds later, corneal epithelial damage was graded using a slit-lamp with a cobalt blue filter after another drop of 0.1% fluorescein was reapplied to the cornea; the cornea then was scored per the Draize ocular scale.
Tear production was measured three times a week in both eyes using PRTT test strips (Zone-Quick; Menicon, Nagoya, Japan). Prior to the first treatment of the day, a thread was applied to the lateral canthus of the conjunctival fornix of each eye for 30 seconds under slit-lamp biomicroscopy. Tear migration up the tread (i.e., the length of the wetted cotton thread) was measured using a millimeter scale.
At necropsy on Day 22, both eyes from each animal, including the globes, lacrimal glands, eyelids, and conjunctivae, were excised. The right eye and associated tissues were fixed by overnight submersion in modified Davidson's solution followed by transfer to 10% neutral buffered formalin (NBF). The fixed tissues of the right eye were dehydrated, embedded in paraffin, sectioned at 3 to 5-μm thicknesses, and slide-mounted tissues were stained with hematoxylin and eosin (H & E). Stained slides were evaluated via light microscopy. Detailed and complete histopathologic assessment was conducted on all parts of the eye, with at least two section levels being examined histopathologically for each right eye. Special attention was paid to the cornea, epithelia (including goblet cells) of the conjunctiva and cornea, as well as the lacrimal gland. These tissues were scored for injury based upon a 0-4 scale, with 0 being normal, 1 being minimal, 2 being mild, 3 being moderate, and 4 being severe. For each cornea, scores were based on corneal epithelium thickness, and corneal inflammation. Conjunctivae were scored for erosion and inflammation as well as presence or absence of goblet cells.

[3] = test system: primary rat lymph-nodes purified T cells; assay: CD3/CD28-induced IL-2 release in primary rat lymph-nodes purified T cells; type: cell-based; conditions: inhibitor 1 h before CD3/CD28 (2 μg/mL), supernatant after 24 h
Method: Control rat were sacrificed and lymph-nodes were harvested. T cells further were purified (using magnetic negative selection) and plated into 96-well plates at 200.000 cells/well. Cells were treated with anti-rat CD3 and anti-rat CD28 antibodies (2 μg/mL). JNK inhibitor with SEQ ID NO: 172 was added to the cultures 1 h before CD3/CD28 treatment and IL-2 release was assessed in supernatant 24 h after treatment.
Control animal were sacrificed, lymph nodes (LN) were harvested and kept in complete RPMI medium. LN were smashed with complete RPMI on 70 μm filter using a 5 ml piston. A few drops of media were added to keep strainer wet. Cells were centrifuged for 7 min at 450 g and 4° C. Pellet was resuspended in 5 ml fresh medium. Cells were passed again through cell strainer. An aliquot of cells was counted, while cells were centrifuged again 10 min at 1400 rpm and 4° C. Cells were resupended in MACS buffer (80 μl of MACS buffer per 10^7 cells). 10 μl of anti-rat MHC microbeads were added per 10 million cells, cells were incubated for 15 min at 4°-8° C. Cells were washed with 15 ml MACS buffer and centrifuge for 7 min at 700 g and 4° C. […] Resuspended cells were counted and plated at density of 200000 cells/well in 100 μl of complete medium. […] Cytokines were then measured using standard Elisa kits. Results are expressed as pg/ml of supernatant of the measured cytokine. […]

[4] = 2 mg/kg i.v., 24 hours after LPS

Question: With “dqsrpvqpflnlttprkprpprrrqrrkkrg ([dD][dQ][dS][dR][dP][dV][dQ][dP][dF][dL][dN][dL][dT][dT][dP][dR][dK][dP][dR][dP][dP][dR][dR][dR][dQ][dR][dR][dK][dK][dR]G) [SEQ ID NO: 197, reference compound]” as the substance, how does the “EIU clinical score, median” value [1, 4] read?
Answer: The value was 2.

Question: What about the “decrease of EIU scores compared with vehicle group” value [1, 4] of the same substance?
Answer: The value was 40%.

Question: What about the “EIU clinical score, mean±SEM” value ([1]; 2 mg/kg i.v., 24 hours after LPS, scale 0 to 4 (+1)) of the same substance?
Answer: Its value is 2.2±0.3.

Question: And the “endotoxin-induced inflammation in the anterior chamber” value ([1]; single intravenous injection 2 mg/kg)?
Answer: Its value is “partially prevented the endotoxin-induced inflammation”.

Question: What about the “Mean PRTT AUC” value ([2]; Day 7-21, high dose 0.6% (SEQ ID NO: 197 Group 4; SEQ ID NO: 172 Group 7)) of the same substance?
Answer: Its value is 43.17.

Question: And the “Mean PRTT AUC” value ([2]; Day 7-21, low dose (SEQ ID NO: 197 0.06% Group 2; SEQ ID NO: 172 0.05% Group 5))?
Answer: The value was 39.96.

Question: And the “Mean PRTT AUC” value ([2]; Day 7-21, mid dose (SEQ ID NO: 197 0.25% Group 3; SEQ ID NO: 172 0.2% Group 6))?
Answer: The value was 42.79.

Question: What about the “Mean Calculated TBUT AUC” value ([2]; Day 7 to Day 21, high dose 0.6% (SEQ ID NO: 197 Group 4; SEQ ID NO: 172 Group 7)) of the same substance?
Answer: Its value is 89.98.

Question: What about the “Mean Calculated TBUT AUC” value ([2]; Day 7 to Day 21, low dose (SEQ ID NO: 197 0.06% Group 2; SEQ ID NO: 172 0.05% Group 5)) of the same substance?
Answer: The value was 88.54.

Question: And the “Mean Calculated TBUT AUC” value ([2]; Day 7 to Day 21, mid dose (SEQ ID NO: 197 0.25% Group 3; SEQ ID NO: 172 0.2% Group 6))?
Answer: The value was 91.19.

Question: And the “PRTT change with dose” value ([2]; SEQ ID NO: 197 0.06%, 0.25% and 0.6%, Groups 2, 3 and 4)?
Answer: Its value is “generally dose-dependent increases in PRTT”.

Question: What about the “TBUT change with dose” value ([2]; SEQ ID NO: 197 low, mid and high dose (Groups 2-4)) of the same substance?
Answer: The value was “slight generally dose-dependent increases in TBUT”.

Question: What about the “corneal changes (histology) compared with other treatment groups” value ([2]; low dose SEQ ID NO: 197 (Group 2)) of the same substance?
Answer: Its value is “slightly more severe”.

Question: And the “histological cornea scores compared with cyclosporine group” value ([2]; mid and high-dose SEQ ID NO: 172 (Groups 6, 7), high-dose SEQ ID NO: 197 (Group 4))?
Answer: Its value is “not significantly different than the cyclosporine group scores”.

Question: And the “CD3/CD28-induced IL-2 release” value [3]?
Answer: The value was “Dose-dependent inhibition”.
